Test results taken from ChEMBL document CHEMBL1154311, “Isolation of the protein tyrosine phosphatase 1B inhibitory metabolite from the marine-derived fungus Cosmospora sp. SF-5060” (Bioorg Med Chem Lett, 2009).

Experiments:
[1] = target: T1, Tyrosine-protein phosphatase non-receptor type 1 (Homo sapiens, UniProt P18031); assay: Inhibition of PTP1B mediated pNPP hydrolysis
T1 sequence (P18031 whole entry): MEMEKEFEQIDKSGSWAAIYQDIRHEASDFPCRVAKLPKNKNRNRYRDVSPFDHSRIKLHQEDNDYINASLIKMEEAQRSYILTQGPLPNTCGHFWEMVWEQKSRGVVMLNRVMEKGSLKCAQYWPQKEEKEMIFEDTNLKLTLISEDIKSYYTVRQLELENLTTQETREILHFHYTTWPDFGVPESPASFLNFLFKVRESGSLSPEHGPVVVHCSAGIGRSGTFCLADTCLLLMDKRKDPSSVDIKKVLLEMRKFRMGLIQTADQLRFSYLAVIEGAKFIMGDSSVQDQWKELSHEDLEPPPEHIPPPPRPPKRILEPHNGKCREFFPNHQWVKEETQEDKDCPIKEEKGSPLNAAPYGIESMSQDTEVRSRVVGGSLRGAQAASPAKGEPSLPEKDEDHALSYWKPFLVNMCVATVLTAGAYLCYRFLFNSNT

[2] = target: T2, Tyrosine-protein phosphatase non-receptor type 1 (Homo sapiens) (UniProt P18031); assay: Inhibition of PTP1B mediated pNPP hydrolysis at 178 uM
T2 sequence (whole entry): T1 sequence (P18031 whole entry)

[3] = target: T3, Tyrosine-protein phosphatase non-receptor type 2 (Homo sapiens, UniProt P17706); assay: Inhibition of TCPTP
T3 sequence (P17706 whole entry): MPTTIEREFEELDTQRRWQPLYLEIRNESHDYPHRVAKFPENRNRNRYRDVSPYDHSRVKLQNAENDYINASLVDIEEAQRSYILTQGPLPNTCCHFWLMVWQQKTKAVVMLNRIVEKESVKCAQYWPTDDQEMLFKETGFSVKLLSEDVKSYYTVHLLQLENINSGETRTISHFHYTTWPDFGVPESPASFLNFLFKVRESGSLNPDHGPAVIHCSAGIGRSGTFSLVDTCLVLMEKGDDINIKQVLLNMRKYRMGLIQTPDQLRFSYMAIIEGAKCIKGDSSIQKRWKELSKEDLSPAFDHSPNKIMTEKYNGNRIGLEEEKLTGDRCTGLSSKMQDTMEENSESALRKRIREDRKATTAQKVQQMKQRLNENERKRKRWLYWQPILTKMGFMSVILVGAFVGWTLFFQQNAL

[4] = target: T4, Receptor-type tyrosine-protein phosphatase C (Homo sapiens, UniProt P08575); assay: Inhibition of CD45
T4 sequence (P08575 whole entry): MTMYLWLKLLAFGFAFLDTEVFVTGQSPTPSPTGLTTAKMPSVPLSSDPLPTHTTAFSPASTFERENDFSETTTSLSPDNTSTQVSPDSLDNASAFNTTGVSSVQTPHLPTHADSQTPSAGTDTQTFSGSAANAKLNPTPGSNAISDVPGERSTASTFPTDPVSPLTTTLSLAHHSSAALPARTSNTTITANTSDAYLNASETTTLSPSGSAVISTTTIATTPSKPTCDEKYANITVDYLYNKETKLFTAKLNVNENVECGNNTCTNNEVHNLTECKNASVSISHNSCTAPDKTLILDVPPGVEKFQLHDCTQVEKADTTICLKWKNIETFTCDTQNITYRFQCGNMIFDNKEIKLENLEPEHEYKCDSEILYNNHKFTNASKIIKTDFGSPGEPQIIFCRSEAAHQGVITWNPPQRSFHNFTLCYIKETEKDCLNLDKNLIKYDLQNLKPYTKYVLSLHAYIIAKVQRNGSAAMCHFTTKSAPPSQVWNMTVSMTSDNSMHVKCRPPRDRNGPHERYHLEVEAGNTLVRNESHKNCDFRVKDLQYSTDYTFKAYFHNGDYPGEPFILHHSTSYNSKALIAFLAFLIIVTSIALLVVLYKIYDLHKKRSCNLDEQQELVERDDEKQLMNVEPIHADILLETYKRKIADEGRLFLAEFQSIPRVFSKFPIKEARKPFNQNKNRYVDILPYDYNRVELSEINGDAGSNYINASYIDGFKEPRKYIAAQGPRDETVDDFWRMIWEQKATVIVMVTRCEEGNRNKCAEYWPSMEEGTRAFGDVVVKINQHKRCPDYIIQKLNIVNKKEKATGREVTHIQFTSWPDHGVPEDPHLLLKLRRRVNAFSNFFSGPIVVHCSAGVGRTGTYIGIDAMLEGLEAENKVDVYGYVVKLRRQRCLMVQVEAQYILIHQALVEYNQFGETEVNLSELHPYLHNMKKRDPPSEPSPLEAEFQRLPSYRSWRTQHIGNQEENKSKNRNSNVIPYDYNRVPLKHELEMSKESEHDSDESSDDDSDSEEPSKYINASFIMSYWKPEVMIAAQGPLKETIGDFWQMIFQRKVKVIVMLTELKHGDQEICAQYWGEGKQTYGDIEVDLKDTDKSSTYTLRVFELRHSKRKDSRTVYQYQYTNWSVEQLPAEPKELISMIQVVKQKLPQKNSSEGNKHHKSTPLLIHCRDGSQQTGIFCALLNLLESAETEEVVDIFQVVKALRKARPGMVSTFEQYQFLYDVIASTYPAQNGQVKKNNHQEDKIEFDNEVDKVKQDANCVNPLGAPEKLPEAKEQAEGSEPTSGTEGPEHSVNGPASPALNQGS

[5] = target: Receptor-type tyrosine-protein phosphatase F (Homo sapiens, UniProt P10586); assay: Inhibition of LAR
[6] = target: T5, Tyrosine-protein phosphatase non-receptor type 11 (Homo sapiens, UniProt Q06124); assay: Inhibition of SHP-2
T5 sequence (Q06124 whole entry): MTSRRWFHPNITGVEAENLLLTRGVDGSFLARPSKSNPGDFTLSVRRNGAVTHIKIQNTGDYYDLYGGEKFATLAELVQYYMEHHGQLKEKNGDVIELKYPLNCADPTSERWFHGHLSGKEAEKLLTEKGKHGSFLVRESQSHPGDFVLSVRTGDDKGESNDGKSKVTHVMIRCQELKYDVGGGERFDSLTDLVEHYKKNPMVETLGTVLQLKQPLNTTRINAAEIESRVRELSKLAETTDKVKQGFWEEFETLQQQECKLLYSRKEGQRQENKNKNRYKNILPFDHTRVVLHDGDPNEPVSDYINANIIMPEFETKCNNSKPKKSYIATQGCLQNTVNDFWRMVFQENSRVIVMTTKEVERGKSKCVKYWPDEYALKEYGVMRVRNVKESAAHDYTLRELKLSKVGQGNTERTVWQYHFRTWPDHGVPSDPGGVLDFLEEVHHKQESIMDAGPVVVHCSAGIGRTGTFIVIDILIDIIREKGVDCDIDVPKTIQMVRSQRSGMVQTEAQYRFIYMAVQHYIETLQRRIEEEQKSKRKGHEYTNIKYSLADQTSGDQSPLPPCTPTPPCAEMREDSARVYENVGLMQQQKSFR

[7] = target: T1, Tyrosine-protein phosphatase non-receptor type 1; assay: Competitive inhibition of PTP1B mediated pNPP hydrolysis by Lineweaver-Burke plot analysis

Chain of Receptor-type tyrosine-protein phosphatase F (P10586 whole entry): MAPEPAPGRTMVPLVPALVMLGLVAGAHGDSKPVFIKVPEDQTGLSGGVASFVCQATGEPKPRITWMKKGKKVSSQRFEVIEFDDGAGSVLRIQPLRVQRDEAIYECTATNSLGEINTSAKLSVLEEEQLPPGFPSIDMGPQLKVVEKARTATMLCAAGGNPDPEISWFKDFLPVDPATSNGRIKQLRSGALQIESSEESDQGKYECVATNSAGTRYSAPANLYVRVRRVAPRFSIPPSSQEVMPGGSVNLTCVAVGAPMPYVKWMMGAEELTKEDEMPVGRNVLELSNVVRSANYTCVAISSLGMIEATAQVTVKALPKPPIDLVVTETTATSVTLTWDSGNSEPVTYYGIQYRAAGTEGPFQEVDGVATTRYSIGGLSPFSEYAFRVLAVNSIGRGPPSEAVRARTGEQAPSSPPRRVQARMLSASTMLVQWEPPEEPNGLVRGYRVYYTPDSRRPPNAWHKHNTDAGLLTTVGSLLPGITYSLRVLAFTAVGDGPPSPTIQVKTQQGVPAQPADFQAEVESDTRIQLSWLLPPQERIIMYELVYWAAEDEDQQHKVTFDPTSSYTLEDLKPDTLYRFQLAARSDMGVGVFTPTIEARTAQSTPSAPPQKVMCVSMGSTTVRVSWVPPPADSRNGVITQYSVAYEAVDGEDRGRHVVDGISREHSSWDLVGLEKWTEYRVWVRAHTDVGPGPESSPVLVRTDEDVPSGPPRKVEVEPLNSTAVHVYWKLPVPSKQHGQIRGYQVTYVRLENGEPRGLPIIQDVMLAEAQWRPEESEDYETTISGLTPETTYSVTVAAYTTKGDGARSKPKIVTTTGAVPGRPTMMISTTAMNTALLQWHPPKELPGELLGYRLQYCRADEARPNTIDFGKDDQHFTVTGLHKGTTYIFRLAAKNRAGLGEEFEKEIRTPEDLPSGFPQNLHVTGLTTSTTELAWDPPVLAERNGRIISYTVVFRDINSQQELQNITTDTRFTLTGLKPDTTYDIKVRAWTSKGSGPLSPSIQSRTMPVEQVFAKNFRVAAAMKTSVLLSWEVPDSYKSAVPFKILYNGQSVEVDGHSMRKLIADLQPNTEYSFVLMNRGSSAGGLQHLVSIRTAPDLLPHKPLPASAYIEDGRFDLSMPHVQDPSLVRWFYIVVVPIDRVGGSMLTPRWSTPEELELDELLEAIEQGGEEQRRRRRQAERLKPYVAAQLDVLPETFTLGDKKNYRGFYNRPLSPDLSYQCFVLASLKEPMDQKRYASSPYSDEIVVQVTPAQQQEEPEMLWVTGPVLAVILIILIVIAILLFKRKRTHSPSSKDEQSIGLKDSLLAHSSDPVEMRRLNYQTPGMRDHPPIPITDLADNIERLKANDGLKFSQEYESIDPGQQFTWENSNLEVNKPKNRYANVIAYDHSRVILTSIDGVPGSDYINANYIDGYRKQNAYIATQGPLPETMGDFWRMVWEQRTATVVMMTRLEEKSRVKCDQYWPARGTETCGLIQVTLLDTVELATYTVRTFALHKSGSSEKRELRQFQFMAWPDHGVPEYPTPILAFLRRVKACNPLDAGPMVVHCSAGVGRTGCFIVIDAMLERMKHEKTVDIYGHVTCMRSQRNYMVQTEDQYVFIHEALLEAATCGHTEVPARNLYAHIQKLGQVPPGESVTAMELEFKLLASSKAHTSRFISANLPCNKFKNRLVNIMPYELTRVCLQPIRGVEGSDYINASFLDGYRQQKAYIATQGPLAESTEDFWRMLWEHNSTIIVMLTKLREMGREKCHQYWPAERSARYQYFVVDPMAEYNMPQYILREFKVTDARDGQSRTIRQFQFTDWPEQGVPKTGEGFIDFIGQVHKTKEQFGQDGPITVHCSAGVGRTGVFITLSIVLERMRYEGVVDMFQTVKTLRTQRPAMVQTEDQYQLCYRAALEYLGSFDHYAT

Row | SMILES | IC50 ([1]; read-out: IC50) | IC50 [1] | also measured
1 | CCCCCCCCCCCCCCCc1cc(O[C@@H]2O[C@H](CO)[C@@H](O)[C@H](O)[C@H]2O)cc(O)c1C(=O)Oc1cc(C)c(C(=O)OC)c(O)c1 | 17000 nM |  | 
2 | CCCCCCCCCCCCCCCc1cc(O)cc(O)c1C(=O)Oc1cc(C)c(C(=O)O)c(O)c1 | 220 nM |  | 
3 | Cc1cc(O)cc(O)c1C(=O)O |  |  | inhibition [2]: 45%

The next lines start with results.

Row | IC50 ([1]; read-out: IC50) | IC50 [1] | SMILES | also measured
4 | 590 nM | Dose-dependent effect | CCCCCCCCCCCCCCCc1cc(O[C@@H]2O[C@H](CO)[C@@H](O)[C@H](O)[C@H]2O)cc(O)c1C(=O)O | 
5 | 190 nM | Dose-dependent effect | CCCCCCCCCCCCCCCc1cc(O[C@@H]2O[C@H](CO)[C@@H](O)[C@H](O)[C@H]2O)cc(O)c1C(=O)Oc1cc(C)c(C(=O)O)c(O)c1 [AQUASTATIN A] | IC50 [3]: 510 nM; IC50 [4]: > 44000 nM; IC50 [5]: > 44000 nM; IC50 [6]: > 44000 nM; Ki [7]: 100 nM
